Earlier results, collected in patent US20090191293A1, “Composition for enhancing immunity and reducing inflammation related to infections” (IOMEDI DEVELOPMENT INTERNATIONAL, SRL, priority 2007, published 2009).

Columns and labels:
[1] = system: NF-κB dependent signaling pathway; conditions: lipopolysaccharide-induced inflammation
[2] = system: arachidonic acid inflammatory reactions
[3] = system: LPS-Stimulated Monocytes/Macrophages
NF-κB = conditions: treatment of mice
[4] = system: intercellular adhesion molecule-1; conditions: activated by TNF-α
[5] = system: nuclear factor kappa B (NF-κB); conditions: HL-60-derived neutrophilic cells
[6] = daily supplementation, amounts greater than 100 mg

## OC[C@H]1O[C@@H](Oc2cc3c(O)cc(O)cc3[o+]c2-c2ccc(O)c(O)c2)[C@H](O)[C@@H](O)[C@@H]1O [Example C3G, cyanidin-3-glucoside]
[1]
  NF-κB dependent signaling pathway: inhibit the NF-κB dependent signaling pathway

## Oc1cc(O)c2c(c1)O[C@H](c1ccc(O)c(O)c1)[C@H](O)[C@H]2c1c(O)cc(O)c2c1O[C@H](c1ccc(O)c(O)c1)[C@H](O)C2 [Procyanidin B(2)]
[2]
  arachidonic acid inflammatory reactions: strongly inhibit arachidonic acid inflammatory reactions

## CC1=C(/C=C/C(C)=C/C=C/C(C)=C/C(=O)O)C(C)(C)CCC1 [all trans-retinoic acid (atRA), all trans-retinoic acid]
[3]
  production of IL-10: enhancing the production of the immune modulating cytokine, IL-10
  production of pro-inflammatory cytokines (IL-12 and TNF-α): lower the production of pro-inflammatory cytokines

## C=CCS[S+]([O-])CC=C (stereo not drawn) [allicin]
T cell
  TNF-α mediated T cell adhesion to extracellular matrix components and endothelial cells: inhibition of TNF-α mediated T cell adhesion
NF-κB
  NF-κB binding to the nucleus: significantly reduced NF-κB binding to the nucleus

## C=C1CC[C@@H]2[C@](C)(CO)[C@H](O)CC[C@@]2(C)[C@@H]1C/C=C1/C(=O)OC[C@H]1O [andrographolide]
[4]
  expression of intercellular adhesion molecule-1: inhibit expression of intercellular adhesion molecule-1
[5]
  binding of NF-κB to the DNA: specifically affects the binding of nuclear factor kappa B (NF-κB) to the DNA

## O=C1O[C@H]([C@@H](O)CO)C(O)=C1O [ascorbic acid, L-ascorbic acid]
[6]
  incidence, severity and integrated morbidity of the common cold: lowers the incidence, severity and integrated morbidity of the common cold
